Assays:
BDZ (central) = assay: Receptor characterization panel: central BDZ binding; settings: 10 μM; [3H]Flunitrazepam; cerebral cortex/rat
PI 3-Kβ = PI 3-Kβ (Homo sapiens, UniProt P42338); assay: Enzyme characterization panel: PI 3-Kβ; type: biochemical; settings: data not shown
[1] = system: CFA-induced inflammatory pain in rats; assay: CFA-induced mechanical hyperalgesia; type: in vivo; settings: rat; p.o., 24 hours after CFA
[2] = system: locomotor activity of rats; assay: Open field test; type: in vivo; settings: rat; 3–30 mg/kg oral, one hour after administration
Sigma (σ1 + σ2) = assay: Receptor characterization panel: sigma binding; settings: [3H]DTG, whole brain/rat
5-HT3 = 5-HT3 (Rattus norvegicus, UniProt P35563); assay: Receptor characterization panel: 5-HT3 binding; settings: read-out: 10 μM CR4056 (% effect), inhibition of specific binding
Chain of 5-HT3 (P35563 24-483): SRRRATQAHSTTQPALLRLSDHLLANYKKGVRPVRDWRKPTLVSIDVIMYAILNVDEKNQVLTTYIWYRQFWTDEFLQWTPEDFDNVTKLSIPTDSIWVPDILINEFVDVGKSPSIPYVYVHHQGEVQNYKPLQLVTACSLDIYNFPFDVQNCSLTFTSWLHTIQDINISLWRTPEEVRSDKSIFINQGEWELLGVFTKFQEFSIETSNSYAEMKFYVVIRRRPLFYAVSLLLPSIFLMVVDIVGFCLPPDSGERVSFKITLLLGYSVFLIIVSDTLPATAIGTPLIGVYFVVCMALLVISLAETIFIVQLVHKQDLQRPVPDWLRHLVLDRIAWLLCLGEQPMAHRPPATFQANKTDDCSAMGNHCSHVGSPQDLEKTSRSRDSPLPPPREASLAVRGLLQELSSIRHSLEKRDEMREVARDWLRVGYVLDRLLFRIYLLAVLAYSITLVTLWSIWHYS

conscious dog = assay: Safety pharmacology, cardiovascular, conscious dog; type: in vivo; settings: supra-pharmacological doses
MAO-A = molecular target: T1, MAO-A (Rattus norvegicus, UniProt P21396); assay: MAO-A binding
T1 sequence (P21396 1-526): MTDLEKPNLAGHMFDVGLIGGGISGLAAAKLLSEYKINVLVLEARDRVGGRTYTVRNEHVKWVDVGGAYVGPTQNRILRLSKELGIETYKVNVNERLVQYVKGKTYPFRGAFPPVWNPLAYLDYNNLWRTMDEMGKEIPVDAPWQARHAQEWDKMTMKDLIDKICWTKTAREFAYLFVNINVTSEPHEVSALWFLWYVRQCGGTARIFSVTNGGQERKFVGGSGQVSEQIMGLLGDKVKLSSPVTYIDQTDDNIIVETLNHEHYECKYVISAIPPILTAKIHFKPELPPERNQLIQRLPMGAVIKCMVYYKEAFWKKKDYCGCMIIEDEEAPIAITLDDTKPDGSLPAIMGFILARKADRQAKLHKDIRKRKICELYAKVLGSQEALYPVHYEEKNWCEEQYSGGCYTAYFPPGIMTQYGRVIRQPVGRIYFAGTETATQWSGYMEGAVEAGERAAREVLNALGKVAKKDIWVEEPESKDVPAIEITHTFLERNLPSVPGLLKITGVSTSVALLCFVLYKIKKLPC

rats = assay: Diuretic effect in rats; type: in vivo, rat; settings: pharmacological/toxicological dose range
carbonic anhydrase II = carbonic anhydrase II (Homo sapiens, UniProt P00918); assay: Enzyme characterization panel: carbonic anhydrase II; type: biochemical; settings: data not shown
CCK1 = CCK1 (Rattus norvegicus, UniProt P30551); assay: Receptor characterization panel: CCK1 binding; settings: read-out: 10 μM CR4056 (% effect), inhibition of specific binding
Chain of CCK1 (P30551 whole entry): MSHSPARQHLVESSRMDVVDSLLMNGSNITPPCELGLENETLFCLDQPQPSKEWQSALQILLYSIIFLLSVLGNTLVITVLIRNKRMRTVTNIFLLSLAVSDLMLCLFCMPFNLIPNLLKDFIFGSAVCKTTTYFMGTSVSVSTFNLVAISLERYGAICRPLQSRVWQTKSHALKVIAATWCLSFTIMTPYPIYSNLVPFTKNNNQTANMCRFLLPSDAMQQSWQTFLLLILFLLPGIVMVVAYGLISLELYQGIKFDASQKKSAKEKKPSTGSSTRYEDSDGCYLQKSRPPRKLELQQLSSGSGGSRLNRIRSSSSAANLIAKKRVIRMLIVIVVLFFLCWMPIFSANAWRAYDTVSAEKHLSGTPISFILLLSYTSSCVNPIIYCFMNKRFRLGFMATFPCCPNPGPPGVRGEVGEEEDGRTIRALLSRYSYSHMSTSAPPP

imidazoline I2 receptor = assay: [3H]2-BFI binding to imidazoline I2 receptors in rat whole-brain membranes; settings: read-out: IC50, nM, [3H]2-BFI binding to the imidazoline I2 receptor; Table S2; rat whole brain membranes, […] [3H]2-BFI, 90 minutes at 25°C; mean ± SEM
TNF-α converting enzyme = TNF-α converting enzyme (Homo sapiens, UniProt P78536); assay: Enzyme characterization panel: TNF-α converting enzyme; type: biochemical; settings: data not shown
PI 3-Kγ = PI 3-Kγ (Homo sapiens, UniProt P48736); assay: Enzyme characterization panel: PI 3-Kγ; type: biochemical; settings: data not shown
I2 = assay: Receptor characterization panel: I2 binding; settings: 10 μM; [3H]Idazoxan (+1 μM yohimbine); cerebral cortex/rat
[3] = molecular target: inducible NO synthase (iNOS) (Homo sapiens, UniProt P35228); assay: Enzyme characterization panel: iNOS; type: biochemical; settings: data not shown
[4] = molecular target: catechol-O-methyl transferase (COMT) (Homo sapiens, UniProt P21964); assay: Enzyme characterization panel: COMT; type: biochemical; settings: data not shown
Chain of catechol-O-methyl transferase (COMT) (P21964 whole entry, species assumed): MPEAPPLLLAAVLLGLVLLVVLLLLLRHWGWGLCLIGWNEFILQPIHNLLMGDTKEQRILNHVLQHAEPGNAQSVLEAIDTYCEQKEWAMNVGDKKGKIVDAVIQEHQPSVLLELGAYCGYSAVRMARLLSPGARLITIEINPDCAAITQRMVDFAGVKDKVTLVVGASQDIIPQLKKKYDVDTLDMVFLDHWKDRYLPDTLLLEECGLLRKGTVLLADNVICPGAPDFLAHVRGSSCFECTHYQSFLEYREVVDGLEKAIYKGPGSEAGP

conscious rat = assay: Safety pharmacology, respiratory, conscious rat; type: in vivo; settings: supra-pharmacological doses
PI 3-Kδ = PI 3-Kδ (Homo sapiens, UniProt O00329); assay: Enzyme characterization panel: PI 3-Kδ; type: biochemical; settings: data not shown
Chain of PI 3-Kδ (O00329 whole entry, species assumed): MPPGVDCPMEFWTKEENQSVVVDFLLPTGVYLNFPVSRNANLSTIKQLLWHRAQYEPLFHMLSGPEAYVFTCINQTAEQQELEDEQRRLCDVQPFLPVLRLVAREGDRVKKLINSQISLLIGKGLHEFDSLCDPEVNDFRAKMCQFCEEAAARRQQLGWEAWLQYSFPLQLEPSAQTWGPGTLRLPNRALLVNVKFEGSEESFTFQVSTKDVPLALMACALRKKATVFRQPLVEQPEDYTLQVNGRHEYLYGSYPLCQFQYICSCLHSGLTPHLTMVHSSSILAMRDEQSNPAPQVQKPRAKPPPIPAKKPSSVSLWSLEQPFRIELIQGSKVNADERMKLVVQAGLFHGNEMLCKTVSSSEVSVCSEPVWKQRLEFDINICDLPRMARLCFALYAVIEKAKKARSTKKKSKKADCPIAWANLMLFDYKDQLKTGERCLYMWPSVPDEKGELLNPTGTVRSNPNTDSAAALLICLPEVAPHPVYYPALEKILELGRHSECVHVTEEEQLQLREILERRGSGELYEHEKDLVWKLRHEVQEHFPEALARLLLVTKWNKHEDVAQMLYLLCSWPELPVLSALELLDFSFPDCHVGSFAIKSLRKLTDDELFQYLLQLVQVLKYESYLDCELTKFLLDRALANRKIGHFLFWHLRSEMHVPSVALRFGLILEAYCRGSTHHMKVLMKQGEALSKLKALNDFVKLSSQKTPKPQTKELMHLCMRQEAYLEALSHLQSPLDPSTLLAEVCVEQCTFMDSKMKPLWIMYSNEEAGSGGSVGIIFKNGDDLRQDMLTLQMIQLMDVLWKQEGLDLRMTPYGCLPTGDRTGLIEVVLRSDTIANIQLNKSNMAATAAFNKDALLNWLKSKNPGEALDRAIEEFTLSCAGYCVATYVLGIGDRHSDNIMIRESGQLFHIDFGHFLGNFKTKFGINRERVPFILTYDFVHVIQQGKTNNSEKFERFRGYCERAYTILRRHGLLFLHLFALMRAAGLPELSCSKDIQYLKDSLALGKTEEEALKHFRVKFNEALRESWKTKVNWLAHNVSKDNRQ
Chain of PI 3-Kδ (P27986 whole entry partner, species assumed): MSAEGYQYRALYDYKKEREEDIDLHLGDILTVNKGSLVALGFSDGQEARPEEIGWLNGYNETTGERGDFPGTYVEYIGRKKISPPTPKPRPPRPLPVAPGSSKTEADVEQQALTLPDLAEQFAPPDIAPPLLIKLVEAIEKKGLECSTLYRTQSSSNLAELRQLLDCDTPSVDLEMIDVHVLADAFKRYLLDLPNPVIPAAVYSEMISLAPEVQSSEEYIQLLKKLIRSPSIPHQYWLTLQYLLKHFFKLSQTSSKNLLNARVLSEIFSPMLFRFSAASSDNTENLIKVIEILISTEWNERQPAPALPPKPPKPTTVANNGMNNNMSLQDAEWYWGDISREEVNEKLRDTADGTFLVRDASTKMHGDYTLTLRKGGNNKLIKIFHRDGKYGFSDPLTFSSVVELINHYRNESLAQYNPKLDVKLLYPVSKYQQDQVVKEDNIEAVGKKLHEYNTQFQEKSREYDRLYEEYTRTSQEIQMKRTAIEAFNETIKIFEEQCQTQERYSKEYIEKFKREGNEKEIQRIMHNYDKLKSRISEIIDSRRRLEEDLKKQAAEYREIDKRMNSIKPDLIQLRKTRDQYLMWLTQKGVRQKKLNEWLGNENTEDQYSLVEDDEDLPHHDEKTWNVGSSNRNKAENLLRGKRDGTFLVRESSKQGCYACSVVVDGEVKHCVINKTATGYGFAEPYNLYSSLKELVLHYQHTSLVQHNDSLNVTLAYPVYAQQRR

[5] = system: endogenous norepinephrine (NE) levels; assay: In vivo quantification of endogenous norepinephrine tissue levels; settings: rat
human mTOR kinase = human mTOR kinase (Homo sapiens, UniProt P42345); assay: Enzyme characterization panel: mTOR kinase; type: biochemical; settings: data not shown
cycooxygenase-2 (COX2) = cycooxygenase-2 (COX2) (Homo sapiens, UniProt P35354); assay: Enzyme characterization panel: COX2; type: biochemical; settings: data not shown
MAO-B = molecular target: T2, MAO-B (Rattus norvegicus, UniProt P19643); assay: MAO-B binding
T2 sequence (P19643 1-520): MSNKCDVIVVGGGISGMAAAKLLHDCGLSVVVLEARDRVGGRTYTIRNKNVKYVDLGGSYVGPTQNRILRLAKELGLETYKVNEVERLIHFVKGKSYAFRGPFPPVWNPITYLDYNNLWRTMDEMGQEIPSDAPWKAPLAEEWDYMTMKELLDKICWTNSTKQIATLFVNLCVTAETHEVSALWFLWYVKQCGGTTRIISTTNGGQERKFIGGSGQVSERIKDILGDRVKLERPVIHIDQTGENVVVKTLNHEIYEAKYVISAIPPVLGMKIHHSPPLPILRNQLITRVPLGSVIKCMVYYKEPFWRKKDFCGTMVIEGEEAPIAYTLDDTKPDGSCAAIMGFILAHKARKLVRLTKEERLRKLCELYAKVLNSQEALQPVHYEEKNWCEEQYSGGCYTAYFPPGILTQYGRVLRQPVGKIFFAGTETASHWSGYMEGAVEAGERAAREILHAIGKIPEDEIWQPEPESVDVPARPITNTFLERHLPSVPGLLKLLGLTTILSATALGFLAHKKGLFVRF

[6] = molecular target: Glycine (strychnine-sensitive) (Rattus norvegicus, UniProt P07727); assay: Receptor characterization panel: glycine receptor binding; settings: read-out: 10 μM CR4056 (% effect), inhibition of specific binding
Chain of Glycine (strychnine-sensitive) (P07727 29-457): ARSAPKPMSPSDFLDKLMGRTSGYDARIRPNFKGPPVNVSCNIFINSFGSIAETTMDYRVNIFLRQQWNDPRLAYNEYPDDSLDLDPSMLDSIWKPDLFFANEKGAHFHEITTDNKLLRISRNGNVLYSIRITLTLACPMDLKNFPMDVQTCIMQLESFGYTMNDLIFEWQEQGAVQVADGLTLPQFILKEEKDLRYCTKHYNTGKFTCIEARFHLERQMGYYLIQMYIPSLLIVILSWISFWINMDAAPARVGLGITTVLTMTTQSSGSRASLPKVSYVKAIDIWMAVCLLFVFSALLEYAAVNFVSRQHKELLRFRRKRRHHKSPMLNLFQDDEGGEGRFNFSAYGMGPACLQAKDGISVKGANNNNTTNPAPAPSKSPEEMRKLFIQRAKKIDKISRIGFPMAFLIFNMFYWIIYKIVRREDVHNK
Chain of Glycine (strychnine-sensitive) (P20781 23-496 partner): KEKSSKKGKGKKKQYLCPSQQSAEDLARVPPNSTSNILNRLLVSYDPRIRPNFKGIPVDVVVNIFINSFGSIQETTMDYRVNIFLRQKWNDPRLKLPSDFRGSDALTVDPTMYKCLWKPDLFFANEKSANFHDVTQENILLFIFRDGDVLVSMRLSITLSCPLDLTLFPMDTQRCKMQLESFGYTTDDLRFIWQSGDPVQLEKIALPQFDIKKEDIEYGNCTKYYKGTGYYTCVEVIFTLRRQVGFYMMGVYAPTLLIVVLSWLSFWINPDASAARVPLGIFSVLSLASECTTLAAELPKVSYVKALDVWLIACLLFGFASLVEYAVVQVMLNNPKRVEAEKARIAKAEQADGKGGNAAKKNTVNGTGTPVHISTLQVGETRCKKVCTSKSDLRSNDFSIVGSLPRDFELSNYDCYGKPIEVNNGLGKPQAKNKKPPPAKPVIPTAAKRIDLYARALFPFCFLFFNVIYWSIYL

[7] = sub-chronic (four days) oral 20 mg/kg once daily, versus vehicle

Chain of PI 3-Kβ (P42338 whole entry, species assumed): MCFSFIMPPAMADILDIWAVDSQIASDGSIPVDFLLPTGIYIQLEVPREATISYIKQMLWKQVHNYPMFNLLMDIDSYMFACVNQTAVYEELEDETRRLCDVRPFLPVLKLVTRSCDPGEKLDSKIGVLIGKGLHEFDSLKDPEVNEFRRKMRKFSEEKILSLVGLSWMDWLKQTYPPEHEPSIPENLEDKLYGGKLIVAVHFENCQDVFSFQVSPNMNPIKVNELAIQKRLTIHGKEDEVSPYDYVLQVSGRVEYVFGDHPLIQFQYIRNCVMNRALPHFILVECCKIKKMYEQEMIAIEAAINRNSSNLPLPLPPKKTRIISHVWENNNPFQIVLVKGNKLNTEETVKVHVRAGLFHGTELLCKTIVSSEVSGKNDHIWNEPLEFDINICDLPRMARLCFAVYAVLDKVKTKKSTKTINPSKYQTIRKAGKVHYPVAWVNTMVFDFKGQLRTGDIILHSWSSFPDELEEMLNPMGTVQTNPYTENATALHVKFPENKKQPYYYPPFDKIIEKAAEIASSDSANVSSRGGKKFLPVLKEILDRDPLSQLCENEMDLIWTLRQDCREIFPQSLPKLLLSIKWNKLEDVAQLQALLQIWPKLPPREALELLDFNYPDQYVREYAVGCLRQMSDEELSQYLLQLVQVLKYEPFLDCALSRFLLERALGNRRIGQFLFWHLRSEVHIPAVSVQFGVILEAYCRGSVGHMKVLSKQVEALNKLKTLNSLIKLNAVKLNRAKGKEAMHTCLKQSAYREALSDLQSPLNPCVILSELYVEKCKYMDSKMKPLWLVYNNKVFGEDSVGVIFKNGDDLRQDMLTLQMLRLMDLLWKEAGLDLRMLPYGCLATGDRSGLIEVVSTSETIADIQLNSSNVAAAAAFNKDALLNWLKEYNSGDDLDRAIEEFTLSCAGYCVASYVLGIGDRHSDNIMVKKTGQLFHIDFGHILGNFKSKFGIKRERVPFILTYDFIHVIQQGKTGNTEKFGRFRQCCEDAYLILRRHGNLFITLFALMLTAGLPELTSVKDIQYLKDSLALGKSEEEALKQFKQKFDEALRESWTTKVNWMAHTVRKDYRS
Chain of PI 3-Kβ (P27986 whole entry partner, species assumed): as the sequence (P27986 whole entry partner, species assumed) above

SMILES: c1ccc(-c2ncc3cc(-n4ccnc4)ccc3n2)cc1 [CR4056, 2-phenyl-6-(1H-imidazol-1yl)quinazoline]
- 10 μM CR4056 (% effect), inhibition of specific binding (BDZ (central)): 21%
- Activity in enzyme characterization panel (PI 3-Kβ): inactive
- ED100 (calculated), complete reversion of CFA-induced hyperalgesia [1]: 22.3 mg/kg
- Locomotor activity levels in open field test [2]: no statistical differences
- 10 μM CR4056 (% effect), inhibition of specific binding (Sigma (σ1 + σ2)): 18%
- inhibition at 10 µM (5-HT3): 28%
- Cardiovascular effects (conscious dog): slight hypertensive effects associated with tachycardia
- IC50 (MAO-A): 358 ± 12 nM
- inhibition at 10 µM (MAO-A; read-out: 10 μM CR4056 (% effect), inhibition of specific binding, 10 μM, [3H]Ro 41-1049, cerebral cortex/rat): > 90%
- Diuretic effect (rats): dose-dependent diuretic effect
- Activity in enzyme characterization panel (carbonic anhydrase II): inactive
- inhibition at 10 µM (CCK1): 21%
- IC50 (imidazoline I2 receptor): 596 ± 76 nM
- Activity in enzyme characterization panel (TNF-α converting enzyme): inactive
- Activity in enzyme characterization panel (PI 3-Kγ): inactive
- 10 μM CR4056 (% effect), inhibition of specific binding (I2): 66%
- Activity in enzyme characterization panel [3]: inactive
- Activity in enzyme characterization panel [4]: inactive
- Respiratory effects (conscious rat): tachypnea associated with a respiratory stimulant effect
- Activity in enzyme characterization panel (PI 3-Kδ): inactive
- Effect on NE levels, plasma ([5]; oral 20 mg/kg): No effect
- Effect on NE levels, lumbar spinal cord ([5]; single oral dose 20 mg/kg, two hours after dosing): not statistically significant
- Increase of endogenous NE levels, parieto-occipital cortex ([5]; single oral dose 20 mg/kg, two hours after dosing, versus vehicle): 68.2% ± 14.1%
- Increase of NE levels, cerebral cortex [5, 7]: 63.1% ±4.2%
- Increase of NE levels, lumbar spinal cord [5, 7]: 51.3% ± 6.7%
- Activity in enzyme characterization panel (human mTOR kinase): inactive
- Activity in enzyme characterization panel (cycooxygenase-2 (COX2)): inactive
- Concentrations for inhibition of MAO-B specific binding relative to MAO-A (MAO-B; rat cerebral membranes, [3H]Ro 19-6327 15 nM): two orders of magnitude higher
- inhibition at 10 µM (MAO-B; read-out: 10 μM CR4056 (% effect), inhibition of specific binding): 35%
- inhibition at 10 µM [6]: 19%

— article PMC3100226 (Journal of Pain Research, 2011)
